Assay results as given in article PMC12490239, “Combining BET inhibition with SMAC mimetics restricts tumor growth and triggers immune surveillance in preclinical cancer models” (Cell Reports Medicine, 2025).

Legend:
Assay in all cases: cells
Design in all cases: CellTiter-Glo 2.0 luminescence proliferation/viability assay, single agents, human tumour cell line panel
HT55 = conditions: Homo sapiens, HT55, 96 h; single agent; read-out: IC50 SMACm
Procedure, shortened: (§1)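 Human tumour cell lines were seeded into assay plates and held at 37°C with 5% CO2 for twenty-four hours, then exposed in triplicate to rising concentrations of the SMAC mimetic, from 4.5 nM to 10 μM, with DMSO as control. After 96 h, viability was read as CellTiter-Glo2.0 luminescence to derive single-agent IC50 values.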

HUTU-80 = conditions: Homo sapiens, HuTu80, 96 h; single agent; read-out: IC50 SMACm
Procedure, shortened: as §1

SW1417 = conditions: Homo sapiens, SW1417, 96 h; single agent; read-out: IC50 SMACm
Procedure, shortened: as §1

COLO94H = conditions: 96 h; single agent; read-out: IC50 SMACm
Procedure, shortened: as §1

LS-174T = conditions: Homo sapiens, LS174T, 96 h; single agent; read-out: IC50 SMACm
Procedure, shortened: as §1

NCI-H292 = conditions: Homo sapiens, NCI-H292, 96 h; single agent; read-out: IC50 SMACm
Procedure, shortened: as §1

SNUC2B = conditions: Homo sapiens, SNU-C2B, 96 h; single agent; read-out: IC50 SMACm
Procedure, shortened: as §1

HCT-116 = conditions: Homo sapiens, HCT-116, 96 h; single agent; read-out: IC50 SMACm
Procedure, shortened: as §1

EBC-1 = conditions: Homo sapiens, EBC-1, 96 h; single agent; read-out: IC50 SMACm
Procedure, shortened: as §1

NCI-H1792 = conditions: Homo sapiens, NCI-H1792, 96 h; single agent; read-out: IC50 SMACm
Procedure, shortened: as §1

SW900 = conditions: Homo sapiens, SW900, 96 h; single agent; read-out: IC50 SMACm
Procedure, shortened: as §1

NUGC-3 = conditions: Homo sapiens, NUGC-3, 96 h; single agent; read-out: IC50 SMACm
Procedure, shortened: as §1

COLO-205 = conditions: Homo sapiens, COLO 205, 96 h; single agent; read-out: IC50 SMACm
Procedure, shortened: as §1

KM12L4 = conditions: KM 12L4, 96 h; single agent; read-out: IC50 SMACm
Procedure, shortened: as §1

SMILES: CN[C@@H](C)C(=O)Nc1ccc(-c2c(-c3cccnc3OC)nc3cc(C)ccn23)c(C#Cc2ccc3c(C)nccc3c2)n1 [SMACm, BI 891065]
- IC50 (HT55): 5 µM
- IC50 (HUTU-80): 3.31 µM
- IC50 (SW1417): 3.9 µM
- IC50 (COLO94H): 4.69 µM
- IC50 (LS-174T): 2.41 µM
- IC50 (NCI-H292): 6.03 µM
- IC50 (SNUC2B): 0.137 µM
- IC50 (HCT-116): 4.06 µM
- IC50 (EBC-1): 2.23 µM
- IC50 (NCI-H1792): 4.79 µM
- IC50 (SW900): 1.78 µM
- IC50 (NUGC-3): 4.59 µM
- IC50 (COLO-205): 4.99 µM
- IC50 (KM12L4): 4.04 µM
